Results: publication PMC4506598, “A small molecular agent YL529 inhibits VEGF-D-induced lymphangiogenesis and metastasis in preclinical tumor models in addition to its known antitumor activities” (BMC Cancer, 2015)
Like-named read-outs stand apart in the source and are kept apart here.

How the values were obtained:
HLECs [1] = experiment: transwell invasion assay; type: cell-based; details: Homo sapiens, read-out: inhibition of cell invasion
Procedure: Transwell migration assay was adopted to indicate the anti-metastasis effect of YL529 [26]. Briefly, the transwell were pre-coated with 25 % Matrigel Matrix containing growth factors (BD Biosciences, Bedford, MA) for 30 min at 37 °C. And then the bottom chambers were filled with 600 μl ECM medium and the top chambers were seeded with 4 × 10^4 cells HLECs (100 μl/well). The top and bottom chambers were incubated for another 24 h. Then cells on the top surface of the membrane were scraped with a cotton swab. Cells on the bottom side of the membrane were fixed with 4 % paraformaldehyde and stained with 0.1 % crystal violet (Sigma-Aldrich, USA). An inverted microscope (Zeiss, Axiovert 200, Germany) was used to obtain the images and the invading cells were quantified.
To further measure the effect of YL529 on HLECs invasion, we used a transwell assay and measured the number of HLECs that passed through a membrane barrier following treatment with various concentrations of YL529 [29].

safety profile in mice = type: in vivo; details: 150 mg/kg daily for 18 days
Procedure: To evaluate the safety profile of YL529 (150 mg/kg) in vivo, we have observed the gross measures such as weight loss, life span, behavior and feedings. Moreover, we have also investigated the mortality and clinical signs of C57BL/6 mice throughout oral administration period. In addition, blood samples and heart, liver, spleen, lung, and kidney tissues of mice were collected; the histopathological, serum biochemistry and hematological analysis were done to observe the possible pathological changes. In addition, we also evaluated the safety profiles of YL529 after oral administration with high dose (6000 mg/kg) for 14 days.
Currently, side effects are the prevalent shortcomings of anticancer drugs.

VEGF-D-LL/2 tumors [2] = experiment: VEGF-D-LL/2 syngeneic s.c. tumor model; type: in vivo
Procedure: (§1) Seven-week-old female C57 BL/6 mice (Beijing animal center, Beijing, China) were used. VEGE-D-LL/2 cells (1 × 10^6) were injected intramuscularly and subcutaneously in hind limb of mice. The mice were randomized into 5 groups (n = 10 per groups) and orally administered 37.5, 75 and 150 mg/kg/day YL529, vehicle and saline alone (N.S.), respectively for 14 days when tumors became visible the 10th day after cells were implanted. Tumor growth and mice weight was monitored every 3 days. When animals were sacrificed with CO2 gas at the end of drug administration, tumor tissues, lung organs and local lymph nodes were removed, weighted and calculated by manual. Tumor size was determined by measuring the largest and perpendicular diameters every 3 days, tumor volume was calculated using the formula: volume (mm^3) = 0.5 × length × width^2. In addition, the same subcutaneously tumor models were used to monitor the survival time of experimental mice after drug administration. All animals experiments performed were in accordance with the guidelines of the institute’s Animal Care and Use Committee of Sichuan University (Chengdu, China).
(§2) Tumor tissues from vehicle and 150 mg/kg YL529 groups were fixed in 4 % paraformaldehyde, dehydrated and embedded in paraffin [27]. Sections of these tissues were subsequently incubated with LYVE-1 and corresponding second antibodies and visualized using peroxidase-DAB. TUNEL staining was also performed for fixed tissues (Promega, USA). Quantification was done as described. Briefly, the microvessel counting was done in representative 200× fields or three high-power (400×) fields of the highest vascular density.
(§3) Based on the safety profile and the in vivo pharmacokinetics of YL529, chronic oral administration of YL529 at daily dosages of 37.5 ~ 150 mg/kg/day was chosen to treat the mice with VEGF-D-LL/2 tumors (syngeneic s.c. and muscle models).

HLECs [3] = experiment: CCK-8 cell viability assay; type: cell-based; details: Homo sapiens, 48 h, read-out: IC50, proliferation of HLECs
Procedure: (§4) Cell viability assays were performed using CCK-8 kit. Briefly, VEGF-D-LL/2 cells, parental LL/2 cells and HLECs were treated with various concentrations of YL529 in 96-well culture plates for 48 h. CCK-8 was added to the cells and the plate was incubated for an additional 2–4 h. The optical density (OD) was then measured at 450 nm using a Spectra MAX M5 microplate spectrophotometer (Molecular Devices, Sunnyvale, CA).
CCK-8 assay was used to evaluate the potential proliferation inhibition effect of HLECs after treated with YL529 or vehicle for 48 h.

VEGF-D-LL/2 cells [4] = experiment: CCK-8 cell viability assay; type: cell-based, murine; details: Mus musculus, 48 h, read-out: IC50, proliferation of VEGF-D-LL/2 cells
Procedure: The transfected murine LL/2 Lewis lung carcinoma cells with the pcDNA3.1 (+) expression vector containing mouse VEGF-D (VEGF-D-LL/2 cells) or pcDNA3.1 (vector alone) were transfected as reported before obtained in our laboratory. The cell lines were maintained in an atmosphere of 5 % CO2 at 37 °C in cell culture medium DMEM supplemented with 10 % fetal bovine serum. Western blot analysis was performed to analyze the expression of recombinant VEGF-D of these cells.
as §4
(§5) VEGF-D-LL/2 cells were previously established by transfection with the pcDNA3.1 (+) expression vector containing mouse VEGF-D [31]. Similar to the previous data from our group, this study uses a VEGF-D antibody that detects the mature form of VEGF-D, because the fully mature cleaved form of 21 kD has the greatest affinity for the receptors, and can bind and activate not only VEGFR-2 but also VEGFR-3.

VEGFR-3 = details: 10 μM; cited from earlier work
parental LL/2 cells = experiment: CCK-8 cell viability assay; type: cell-based, murine; details: Mus musculus, 48 h, read-out: IC50, proliferation of parental LL/2 cells
Procedure: Human lymphatic endothelial cells (HLECs) were purchased from the ScienCell™ Research Laboratories and cultured in endothelial cell medium (ECM) containing 5 % fetal bovine serum (FBS), 1 % endothelial cell growth supplement (ECGS), 100 IU/mL penicillin and 100 μg/mL streptomycin. Lewis lung carcinoma LL/2 cells were obtained from American Type Culture Collection (ATCC) and cultured in DMEM containing 10 % FBS, 100 IU/mL penicillin and 100 μg/mL streptomycin. Subcultures were performed with trypsin-EDTA. All cells were incubated in an atmosphere of 5 % CO2 at 37 °C.
as §4, §5

HLECs [5] = experiment: tube formation assay; type: cell-based; details: Homo sapiens, 6 h
Procedure: The antilymphogenic effects of YL529 were analyzed in vitro using a tube-formation assay in HLECs. Briefly, 96-well plate was pre-incubated with 100 μl per well of Matrigel Matrix at 37 °C for 30 min, HLECs were seeded at a density of 3 × 10^4 cells per well in ECM medium. And after cultured in the presence or absence of designed concentrations of YL529 on Matrigel Matrix at 37 °C another 6 h, tube formation by endothelial cells was evaluated and photographed under an inverse microscope (Zeiss, Axiovert 200, Germany).
To further understand the mechanism of the anti-lymphogenic effect of YL529, the antilymphogenic tube formation effect of YL529 was analyzed with cultured HLECs in vitro [30]. […] In great contrast, HLECs without YL529 treatment spread and aligned with each other and formed a rich meshwork of branching capillary-like tubules within 6 h (Fig. 2c).

[6] = high-dose toxicity, organ parameters in rats; type: in vivo; details: SD rats; for Heart index / Kidney index / Liver index / Lung index / Spleen index: oral 6000 mg/kg
[7] = pharmacokinetics after oral administration in mice; type: in vivo, C57 BL/6 mice; details: for half-life: po
Procedure: C57 BL/6 mice (n = 3 per time point) were administered 150 mg/kg YL529 orally. Blood samples of the mice were collected at appropriate intervals and the plasma concentration of YL529 was analyzed by HPLC (Waters, MA, USA). The pharmacokinetic characteristics and parameters were analyzed using Pharmacokinetic Software of Drug and Statistics (DAS, edited and published by the Mathematical Pharmacology Professional Committee of China, Shanghai, China).

p-VEGFR-3 = experiment: western blot of VEGFR-3/p-VEGFR-3 in HLECs; type: cell-based, human; details: after 2 h of treatment
Procedure: (§6) Standard western blot analysis was performed. Briefly, Cell lysates were washed with phosphate buffered saline (PBS) and lysed in RIPA (radioimmunoprecipitation assay) buffer. Then lysates were centrifuged at 12000 g for 30 min at 4 °C. The Bio-Rad Protein Assay kit (Bio-Rad Laboratories) was used to determine the samples protein concentration according to the manufacturers’ recommendations. The lysates were dissolved in 5 × SDS sample buffer and denatured, then subjected to 6 % to 12 % SDS-PAGE (sodium dodecyl sulfate polyacrylamide gel electrophoresis) according to molecular weight and transferred onto PVDF (polyvinylidene fluoride) (Bio-Rad, Hercules, CA) membranes. Membranes were blocked for 1 h in 5 % dried milk in TBS/T at room temperature and incubated overnight at 4 °C with the primary antibodies and horseradish peroxidase-conjugated secondary antibodies. Protein bands were visualized with enhanced chemiluminescent substrate (Amersham Biosciences Corp., Piscataway, NJ).
To gain in-depth insight into the molecular mechanism of anti-lymphangiogenesis effects of YL529, the expression levels of VEGFR-3/p-VEGFR-3 in HLECs were analyzed by western blotting in vitro.

VEGF-D-LL/2 cells [8] = experiment: western blot of p-JNK, Bax, Bcl-2 in VEGF-D-LL/2 cells; type: cell-based, murine
Procedure: as §6

VEGF-D-LL/2 tumors [9] = experiment: VEGF-D-LL/2 syngeneic muscle tumor metastasis model; type: in vivo, C57 BL/6 mice; details: for percent of mice with local lymph node metastasis: vehicle 80 % ~ 90 %
Procedure: as §1, §2, §3

HLECs [10] = experiment: scratch-induced (wound healing) migration assay; type: cell-based; details: Homo sapiens, read-out: inhibition of cell migration
Procedure: The anti-metastasis effect of YL529 was determined using a scratch-induced cell migration assay in vitro [24, 25]. Briefly, 1 × 10^5 HLECs were plated in 6 well plates and synchronized by serum-free ECM medium for 8 h, then used a micropipette tip to create a 2 mm-wide linear gap. Cells were washed to remove non-adherent cells and further incubated with fresh ECM medium containing or lacking YL529. An inverted microscope (Carl Zeiss, Germany) was used to photograph after YL529 treatment for another 48 h.
We next examined the effects of YL529 on HLECs migration using a wound healing migration assay.

VEGFR2 = details: 10 μM; cited from earlier work
[11] = C57 BL/6, mouse, plasma, single dose 150 mg/kg

With `CNC(=O)c1cc(Oc2ccc(NC(=O)c3cccc(C(F)(F)F)c3)cc2)ccn1` [YL529, N-methyl-4-(4-(3-(trifluoromethyl)benzamido)phenoxy)picolinamide4-methylbenzenesulfonate] the inhibition at 2.5 µM (HLECs [1]; 2.5 μM, compared with vehicle) was 28%, the inhibition at 5 µM (HLECs [1]; 5 μM) was 65.9% and the inhibition at 10 µM (HLECs [1]; 10 μM) was 90.2%. The “body weight loss or tissue damage” value (safety profile in mice) was “no obvious body weight loss or tissue damage”, the “apoptotic tumor cells (TUNEL), increase vs. vehicle” value (VEGF-D-LL/2 tumors [2]; 150 mg/kg) was 20 fold and the “mice survived to 54 days” value (VEGF-D-LL/2 tumors [2]; 150 mg/kg group) was 60%. The “mice survived to 40 days” value (VEGF-D-LL/2 tumors [2]; YL529 treated groups) was 90%, the body weight (VEGF-D-LL/2 tumors [2]; at this dosage) was “no loss of body weight” and the tumor volume reduction (VEGF-D-LL/2 tumors [2]; compared with vehicle-treated group, oral, dose not given) was 66.22%. The IC50 (HLECs [3]) was 5.5 µM, the IC50 (VEGF-D-LL/2 cells [4]) was 7.2 µM and the “inhibition of VEGFR-3 activity” value (VEGFR-3) was 97%. The IC50 (parental LL/2 cells) was 9.6 µM, the inhibition at 10 µM (HLECs [5]) was 85.7% and the “weight changes of major organs (heart, liver, spleen, lung, kidney and brain)” value ([6]; 6000 mg/kg daily for 14 days) was “no obvious weight changes”. For the same compound, the Heart index ([6]; female) was 0.42 ± 0.09%, the Kidney index ([6]; female) was 0.38 ± 0.09% and the Liver index ([6]; female) was 3.13 ± 0.09%. The Lung index ([6]; female) was 0.43 ± 0.06%, the Spleen index ([6]; female) was 0.25 ± 0.03% and the Heart index ([6]; male) was 0.42 ± 0.06%. It also gave a Kidney index ([6]; male) of 0.38 ± 0.09%, a Liver index ([6]; male) of 3.09 ± 0.13% and a Lung index ([6]; male) of 0.42 ± 0.09%. The Spleen index ([6]; male) was 0.24 ± 0.04%, the Cmax ([7]; C57 BL/6, mouse, plasma, 150 mg/kg, read-out: peak plasma concentration (Cmax)) was 18000 ng/mL and the half-life ([7]; C57 BL/6, mouse, plasma, 150 mg/kg, single dose 150 mg/kg, read-out: t1/2z (converted)) was 4.11 h. The half-life ([7]; C57 BL/6, mouse, plasma, 150 mg/kg, single dose 150 mg/kg, read-out: t1/2β (converted)) was 6.03 h, the AUC(0-inf) [7, 11] was 171 µg·h/mL and the AUC(0-t) [7, 11] was 167 µg·h/mL. For the same compound, the Tmax [7, 11] was 2 h, the Cmax ([7]; single dose 150 mg/kg) was 18030 ng/mL and the T1/2α ([7]; single dose 150 mg/kg) was 1.39 h. For the same compound, the “phosphorylation of VEGFR-3” value (p-VEGFR-3) was “potently inhibited”, the “total expression of VEGFR-3” value (p-VEGFR-3) was “no change” and the “expression level of Bcl-2” value (VEGF-D-LL/2 cells [8]) was “increased”. The “expression level of p-JNK” value (VEGF-D-LL/2 cells [8]) was “decreased”, the “number of mice with lung metastasis and inguinal lymph node metastasis” value (VEGF-D-LL/2 tumors [9]) was “significantly reduced” and the “percent of mice with local lymph node metastasis” value (VEGF-D-LL/2 tumors [9]; 37.5 mg/kg group) was 50%. For the same compound, the “lymphangiogenesis in tumor tissues (LYVE-1 staining), change vs vehicle group” value (VEGF-D-LL/2 tumors [9]; 150 mg/kg for 14 days) was 34.71%, the “percent of mice with local lymph node metastasis” value (VEGF-D-LL/2 tumors [9]; 150 mg/kg group) was 20% and the body weight (VEGF-D-LL/2 tumors [9]; end of drug administration) was “no loss of body weight”. The inhibition at 2.5 µM (HLECs [10]; 2.5 μM) was 44.3%, the inhibition at 5 µM (HLECs [10]; 5 μM) was 66.8% and the inhibition at 10 µM (HLECs [10]; 10 μM) was 79.8%. For the same compound, the “inhibition of VEGFR2 activity” value (VEGFR2) was “inhibited VEGFR2 activity”.
